Read-outs that look alike come from different tables or passages of the source.
Molecular target: T1, Cu,Zn-SOD (Cu,Zn-superoxide dismutase) (Bos taurus, UniProt P00442)
T1 construct: gene SOD1
Experiment: SOD kit (xanthine/xanthine oxidase, WST-1 formazan at […] nm) after […] h pre-incubation with chelator
Type: biochemical

T1 sequence (P00442 2-152): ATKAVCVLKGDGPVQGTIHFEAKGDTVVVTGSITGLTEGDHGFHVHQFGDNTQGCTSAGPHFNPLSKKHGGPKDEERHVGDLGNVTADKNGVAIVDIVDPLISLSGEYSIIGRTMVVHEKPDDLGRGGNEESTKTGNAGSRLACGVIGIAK

Row | IC50 (read-out: IC50) [µM] | SMILES | IC50 [µM]
1 |  | [S]=[Mo](=[S])([SH])[SH] [bcTTM, Bis-choline-tetrathiomolybdate] | < 0.2
2 | 50 to 100 | CC(C)(S)[C@@H](N)C(=O)O [DPA, 3-mercapto-D-valine] | 

Source: publication PMC12473319, “TDMQ20 as A Drug Candidate for Wilson’s Disease: Comparison with D-Penicillamine, Trientine, and Tetrathiomolybdate In Vitro and In Mice” (Pharmaceutics, 2025)
